Data published in BindingDB's records for doi:10.1016/s1074-5521(97)90073-9 (University of California Berkeley, 1997).

Molecular target: Cathepsin D (Homo sapiens, UniProt P07339)
Experiment: High Through-Put Fluorescence Assay
Conditions: pH 3.7
Excerpt: A fluorometric high through-put assay for inhibitor towards human liver cathepsin D from Calbiochem.

Sequence of Cathepsin D (P07339 65-162 limits assumed): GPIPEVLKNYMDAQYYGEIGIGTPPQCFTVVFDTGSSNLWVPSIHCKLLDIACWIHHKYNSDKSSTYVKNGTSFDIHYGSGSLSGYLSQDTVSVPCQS
Sequence of Cathepsin D (P07339 169-412 limits assumed): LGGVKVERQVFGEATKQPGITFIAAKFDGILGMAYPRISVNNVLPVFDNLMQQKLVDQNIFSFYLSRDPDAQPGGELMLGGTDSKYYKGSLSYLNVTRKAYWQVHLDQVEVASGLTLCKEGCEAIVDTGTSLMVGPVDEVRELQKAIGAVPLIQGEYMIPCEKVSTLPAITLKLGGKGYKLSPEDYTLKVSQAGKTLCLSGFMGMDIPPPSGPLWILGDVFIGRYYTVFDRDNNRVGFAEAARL

SMILES	Ki [nM]	IC50 [nM]
O=C(COc1cc(Cl)c(Cl)cc1Cl)N[C@@H](c1ccccc1)[C@H](O)CN(CCc1ccc2c(c1)OCO2)C(=O)CCN1C(=O)c2ccccc2C1=O [(R)-EHD]	> 5000	–
O=C(COc1ccc(Cl)c(Cl)c1)N[C@@H](c1ccccc1)[C@H](O)CN(CCc1ccc2c(c1)OCO2)C(=O)CCN1C(=O)c2ccccc2C1=O [(R)-EHO]	–	> 5000
O=C(CCn1c(=O)oc2ccccc21)N[C@@H](c1ccccc1)C(O)CN(CCc1ccc2c(c1)OCO2)C(=O)CCc1ccc(Cl)c(Cl)c1 (stereo partly specified) [EFA]	171	–
O=C(CCn1c(=O)oc2ccccc21)N[C@@H](c1ccccc1)C(O)CN(CCc1ccc2c(c1)OCO2)C(=O)CCN1C(=O)c2ccccc2C1=O (stereo partly specified) [EHA]	131	–
COc1cccc(CCN(CC(O)[C@@H](NC(=O)Cn2c(O)csc2=S)c2ccccc2)C(=O)NC2CCCCC2)c1 (stereo partly specified) [FBB]	356	–
CCCCCCC(=O)N(CCc1cccc(OC)c1)CC(O)[C@@H](NC(=O)Cn1c(O)csc1=S)c1ccccc1 (stereo partly specified) [FDB]	595	–
O=C(CCn1c(=O)oc2ccccc21)N[C@@H](c1ccccc1)C(O)CN(CCc1ccc(Cl)cc1Cl)C(=O)CCN1C(=O)c2ccccc2C1=O (stereo partly specified) [FHA]	231	–
Cc1ccc(CCN(CC(O)[C@@H](NC(=O)COc2cc(Cl)c(Cl)cc2Cl)c2ccccc2)C(=O)CCN2C(=O)c3ccccc3C2=O)cc1 (stereo partly specified) [UHD]	224	229

Now from value to compound:

Ki [nM]	IC50 [nM]	SMILES
73	–	O=C(COc1cc(Cl)c(Cl)cc1Cl)N[C@@H](c1ccccc1)C(O)CN(CCc1ccc2c(c1)OCO2)C(=O)CCN1C(=O)c2ccccc2C1=O (stereo partly specified) [EHD]
111	–	COc1ccc(C(=O)N[C@@H](c2ccccc2)C(O)CN(CCc2ccc3c(c2)OCO3)C(=O)CCN2C(=O)c3ccccc3C2=O)c(Cl)c1OC (stereo partly specified) [EHJ]
9	14	O=C(COc1ccc(Cl)cc1Cl)N[C@@H](c1ccccc1)C(O)CN(CCc1ccc2c(c1)OCO2)C(=O)CCN1C(=O)c2ccccc2C1=O (stereo partly specified) [EHM]
15	19	O=C(COc1ccc(Cl)c(Cl)c1)N[C@@H](c1ccccc1)C(O)CN(CCc1ccc2c(c1)OCO2)C(=O)CCN1C(=O)c2ccccc2C1=O (stereo partly specified) [EHO]
15	20	O=C(COc1cccc(Cl)c1)N[C@@H](c1ccccc1)C(O)CN(CCc1ccc2c(c1)OCO2)C(=O)CCN1C(=O)c2ccccc2C1=O (stereo partly specified) [EHR]
59	64	COc1cc(Br)c(C(=O)N[C@@H](c2ccccc2)C(O)CN(CCc2ccc3c(c2)OCO3)C(=O)CCN2C(=O)c3ccccc3C2=O)cc1OC (stereo partly specified) [EHS]
14	18	O=C(COc1ccc(Cl)c(Cl)c1)N[C@@H](c1ccccc1)C(O)CN(CCc1ccc(Cl)cc1Cl)C(=O)CCN1C(=O)c2ccccc2C1=O (stereo partly specified) [FHO]
